# Data: patent publication US20100234377A1 (priority 2007, published 2010)
# Target: T1, human Prostaglandin D Synthase (GST2) (Homo sapiens, UniProt O60760)
# T1 construct: the open reading frame of human Prostaglandin D Synthase was amplified from cDNA; made in house; host or cells: E. coli TOP10F'
# Assay: Homogeneous biochemical assay of human Prostaglandin D Synthase (GST2) based on its glutathion-S-transferase activity (GSH conjugation to monochlorobimane, fluorescence)
# Details: given beside the compound name in Examples 1 to 167; read-out: Potency Range (GST2 IC50)
# Description: Homogeneous, Biochemical Assay Monitoring the Activity of Human Prostaglandin D Synthase Based on the Glutathion-S-Transferase Activity of the Enzyme
# Prostaglandin D2 synthesis by Prostaglandin D synthase (GST2) requires transfer of Glutathion (GSH) to the substrate, Prostaglandin H2. […] Since the Prostaglandin D2 synthesis is absolutely dependent on the GST activity of the enzyme, assays monitoring the GST activity should allow to identify specific inhibitors of Prostaglandin D2 synthetic activity. The assay principle used is based on enzymatic conjugation of GSH to Monochlorobimane (MCB), that becomes fluorescent upon this chemical modification. Therefore, the enzymatic reaction can be monitored by total fluorescence measurement.
# In brief, the open reading frame of human Prostaglandin D Synthase was amplified from cDNA using the primer pair:
# This construct allows prokaryotic expression of Prostaglandin D Synthase as fusion protein with a N-terminal hexa-histidine tag, referred to as NHis-Prostaglandin D Synthase.
# Expression of NHis-Prostaglandin D Synthase was in E. coli TOP10F′ (Invitrogen, Germany, cat. no. C3030-03). […] When the culture had reached a density corresponding to an A600 of 0.6, an equal volume of room temperature LB/ampicillin was added. […] Cells harvested by centrifugation were resuspended in 50 mM tris(hydroxymethyl)aminomethane hydrochloride pH 7.5 (Tris/HCl, Sigma, cat. no. T5941).
# Removal of unbound material was with 100 ml lysis buffer. Elution was with 50 ml of 50 mM Tris/HCl pH 7.5, 300 mM imidazol (Sigma, Germany, cat. no. I2399)/HCl pH 7.5). […] Aliquots were shock frozen in liquid nitrogen and stored at −80° C.
# All assay components were diluted in reaction buffer, 50 mM MES/KOH (pH 6.1), 0.7 mM GSH (Sigma, G4251), 2 mM MgCl2 (Sigma, M2670), 0.05% Pluronic F127 (Sigma, P2443), and stored on ice prior to use. Compounds were diluted in 90% DMSO yielding final assay concentrations from the picomolar to three digit micromolar range.
# Total fluorescent measurement was carried out with excitation and emission wavelength of 390 and 460 nm, respectively (BMG Fluostar Optima).
# T1 sequence (O60760 whole entry): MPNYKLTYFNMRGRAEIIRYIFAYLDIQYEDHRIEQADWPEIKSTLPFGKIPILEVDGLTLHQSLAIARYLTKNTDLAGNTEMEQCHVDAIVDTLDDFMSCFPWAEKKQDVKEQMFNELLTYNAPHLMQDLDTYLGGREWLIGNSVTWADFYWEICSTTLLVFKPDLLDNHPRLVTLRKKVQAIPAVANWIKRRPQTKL
row,SMILES,IC50
1,"O=C(Nc1ccc(N2CCOCC2)c(F)c1)N1CCN(C(=O)c2cc(F)ccc2F)CC1 [Compound 47, 4-(2,5-Difluoro-benzoyl)-piperazine-1-carboxylic acid (3-fluoro-4-morpholin-4-yl-phenyl)-amide]",101 to 1000 nM
2,CCCCNC(=O)N1CCN(c2ccc(NC(=O)N3CCN(C(=O)c4cccc(F)c4)CC3)cc2F)CC1 [Compound 53],11 to 100 nM
3,"CC(C)(C)C(=O)N1CCN(c2ccc(NC(=O)N3CCN(C(=O)c4cccc(F)c4)CC3)cc2F)CC1 [Compound 56, 4-(3-Fluoro-benzoyl)-piperazine-1-carboxylic acid {4-[4-(2,2-dimethyl-propionyl)-piperazin-1-yl]-3-fluoro-phenyl}-amide]",11 to 100 nM
4,"CC(C)C(=O)N1CCN(c2ccc(NC(=O)N3CCN(C(=O)c4cccc(F)c4)CC3)cc2F)CC1 [Compound 57, 4-(3-Fluoro-benzoyl)-piperazine-1-carboxylic acid [3-fluoro-4-(4-isobutyryl-piperazin-1-yl)-phenyl]-amide]",11 to 100 nM
5,"CC(C)C(=O)N1CCN(c2ccc(NC(=O)N3CCN(C(=O)c4cc(F)ccc4F)CC3)cc2F)CC1 [Compound 58, 4-(2,5-Difluoro-benzoyl)-piperazine-1-carboxylic acid [3-fluoro-4-(4-isobutyryl-piperazin-1-yl)-phenyl]-amide]",101 to 1000 nM
6,"O=C(Nc1nc2ccccc2[nH]1)N1CCN(C(=O)c2cccc(F)c2)CC1 [Compound 64, 4-(3-Fluoro-benzoyl)-piperazine-1-carboxylic acid (1H-benzoimidazol-2-yl)-amide]",101 to 1000 nM
7,"O=C(Nc1nc2ccc(F)cc2s1)N1CCN(C(=O)c2cccc(F)c2)CC1 [Compound 66, 4-(3-Fluoro-benzoyl)-piperazine-1-carboxylic acid (6-fluoro-benzothiazol-2-yl)-amide]",11 to 100 nM
8,"O=C(Nc1nc2ccc(Br)cc2s1)N1CCN(C(=O)c2cccc(F)c2)CC1 [Compound 68, 4-(3-Fluoro-benzoyl)-piperazine-1-carboxylic acid (6-bromo-benzothiazol-2-yl)-amide]",1 to 10 nM
9,"O=C(Nc1nnc(-c2ccncc2)s1)N1CCN(C(=O)c2cccc(F)c2)CC1 [Compound 71, 4-(3-Fluoro-benzoyl)-piperazine-1-carboxylic acid (5-pyridin-4-yl[1,3,4]thiadiazol-2-yl)-amide]",11 to 100 nM
10,"O=C(Nc1nnc(-c2ccccc2)o1)N1CCN(C(=O)c2cccc(F)c2)CC1 [Compound 72, 4-(3-Fluoro-benzoyl)-piperazine-1-carboxylic acid (5-phenyl-[1,3,4]oxadiazol-2-yl)-amide]",11 to 100 nM
11,"O=C(Nc1nc(-c2ccccn2)cs1)N1CCN(C(=O)c2cccc(F)c2)CC1 [Compound 73, 4-(3-Fluoro-benzoyl)-piperazine-1-carboxylic acid (4-pyridin-2-yl-thiazol-2-yl)-amide]",11 to 100 nM
12,"O=C(Nc1nc(-c2cccnc2)cs1)N1CCN(C(=O)c2cccc(F)c2)CC1 [Compound 74, 4-(3-Fluoro-benzoyl)-piperazine-1-carboxylic acid (4-pyridin-3-yl-thiazol-2-yl)-amide]",11 to 100 nM
13,"Cc1nccc(-c2cccc(NC(=O)N3CCN(C(=O)c4cccc(F)c4)CC3)c2)n1 [Compound 78, 4-(3-Fluoro-benzoyl)-piperazine-1-carboxylic acid [3-(2-methyl-pyrimidin-4-yl)-phenyl]-amide]",11 to 100 nM
14,"Cc1ccc2nc(NC(=O)N3CCN(C(=O)c4cccc(F)c4)CC3)sc2c1 [Compound 80, 4-(3-Fluoro-benzoyl)-piperazine-1-carboxylic acid (6-methyl-benzothiazol-2-yl)-amide]",1 to 10 nM
15,"O=C(Nc1nc2ccc(Cl)cc2s1)N1CCN(C(=O)c2cccc(F)c2)CC1 [Compound 82, 4-(3-Fluoro-benzoyl)-piperazine-1-carboxylic acid (6-chloro-benzothiazol-2-yl)-amide]",1 to 10 nM
16,"CCOC(=O)c1ccc2nc(NC(=O)N3CCN(C(=O)c4cccc(F)c4)CC3)sc2c1 [Compound 83, 2-{[4-(3-Fluoro-benzoyl)-piperazine-1-carbonyl]-amino}-benzothiazole-6-carboxylic acid ethyl ester]",11 to 100 nM

# Second part, the compound after the results:
row,IC50,SMILES
1,11 to 100 nM,"O=C(Nc1ccc(Br)c(-c2ccncc2)c1)N1CCN(C(=O)c2cccc(F)c2)CC1 [Compound 43, 4-(3-Fluoro-benzoyl)-piperazine-1-carboxylic acid (4-bromo-3-pyridin-4-yl-phenyl)-amide]"
2,101 to 1000 nM,"O=C(Nc1ccc(Oc2cccnc2)nc1)N1CCN(C(=O)c2cccc(F)c2)CC1 [Compound 44, 4-(3-Fluoro-benzoyl)-piperazine-1-carboxylic acid [6-(pyridin-3-yloxy)-pyridin-3-yl]-amide]"
3,101 to 1000 nM,"O=C(Nc1cnc2ccccc2c1)N1CCN(C(=O)c2cccc(F)c2)CC1 [Compound 45, 4-(3-Fluoro-benzoyl)-piperazine-1-carboxylic acid quinolin-3-ylamide]"
4,11 to 100 nM,"CC(C)(C)OC(=O)N1CCN(c2ccc(NC(=O)N3CCN(C(=O)c4cccc(F)c4)CC3)cc2F)CC1 [Compound 46, 4-(2-Fluoro-4-{[4-(3-fluoro-benzoyl)-piperazine-1-carbonyl]-amino}-phenyl)-piperazine-1-carboxylic acid tert-butyl ester]"
5,101 to 1000 nM,"CC(C)(C)OC(=O)N1CCN(c2ccc(NC(=O)N3CCN(C(=O)c4cc(F)ccc4F)CC3)cc2F)CC1 [Compound 48, 4-(4-{[4-(2,5-Difluoro-benzoyl)-piperazine-1-carbonyl]-amino}-2-fluoro-phenyl)-piperazine-1-carboxylic acid tert-butyl ester]"
6,101 to 1000 nM,"O=C(Nc1ccc([N+](=O)[O-])cc1)N1CCN(C(=O)c2cc(F)ccc2F)CC1 [Compound 49, 4-(2,5-Difluoro-benzoyl)-piperazine-1-carboxylic acid (4-nitro-phenyl)-amide]"
7,11 to 100 nM,"O=C(Nc1ccc(N2CCN(C(=O)NC3CCCC3)CC2)c(F)c1)N1CCN(C(=O)c2cccc(F)c2)CC1 [Compound 54, N-{4-[4-(cyclopentylcarbamoyl)piperazin-1-yl]-3-fluorophenyl}-4-(3-fluorobenzoyl)piperazine-1-carboxamide]"
8,101 to 1000 nM,"CC(C)NC(=O)N1CCN(c2ccc(NC(=O)N3CCN(C(=O)c4cc(F)ccc4F)CC3)cc2F)CC1 [Compound 55, 4-(2,5-difluorobenzoyl)-N-{3-fluoro-4-[4-(isopropylcarbamoyl)piperazin-1-yl]phenyl}piperazine-1-carboxamide]"
9,101 to 1000 nM,CC(=O)N1CCN(c2ccc(NC(=O)N3CCN(C(=O)c4cccc(F)c4)CC3)cc2)CC1 [Compound 61]
10,101 to 1000 nM,"Cc1cc(NC(=O)N2CCN(C(=O)c3cccc(F)c3)CC2)no1 [Compound 62, 4-(3-Fluoro-benzoyl)-piperazine-1-carboxylic acid (5-methyl-isoxazol-3-yl)-amide]"
11,11 to 100 nM,"O=C(Nc1nc2ccccc2s1)N1CCN(C(=O)c2cccc(F)c2)CC1 [Compound 65, 4-(3-Fluoro-benzoyl)-piperazine-1-carboxylic acid benzothiazol-2-ylamide]"
12,11 to 100 nM,"O=C(Nc1nc2ccc(OC(F)(F)F)cc2s1)N1CCN(C(=O)c2cccc(F)c2)CC1 [Compound 67, 4-(3-Fluoro-benzoyl)-piperazine-1-carboxylic acid (6-trifluoromethoxy-benzothiazol-2-yl)-amide]"
13,11 to 100 nM,"O=C(Nc1nc(-c2ccccc2)ns1)N1CCN(C(=O)c2cccc(F)c2)CC1 [Compound 70, 4-(3-Fluoro-benzoyl)-piperazine-1-carboxylic acid (3-phenyl-[1,2,4]thiadiazol-5-yl)-amide]"
14,101 to 1000 nM,"O=C(Nc1nc(-c2ccncc2)cs1)N1CCN(C(=O)c2cccc(F)c2)CC1 [Compound 75, 4-(3-Fluoro-benzoyl)-piperazine-1-carboxylic acid (4-pyridin-4-yl-thiazol-2-yl)-amide]"
15,101 to 1000 nM,"Cc1nc(-c2cccc(NC(=O)N3CCN(C(=O)c4cccc(F)c4)CC3)c2)cs1 [Compound 77, 4-(3-Fluoro-benzoyl)-piperazine-1-carboxylic acid [3-(2-methyl-thiazol-4-yl)-phenyl]-amide]"
16,1 to 10 nM,"Cc1cc2nc(NC(=O)N3CCN(C(=O)c4cccc(F)c4)CC3)sc2cc1C [Compound 79, 4-(3-Fluoro-benzoyl)-piperazine-1-carboxylic acid (5,6-dimethyl-benzothiazol-2-yl)-amide]"
17,1 to 10 nM,"COc1ccc2nc(NC(=O)N3CCN(C(=O)c4cccc(F)c4)CC3)sc2c1 [Compound 81, 4-(3-Fluoro-benzoyl)-piperazine-1-carboxylic acid (6-methoxy-benzothiazol-2-yl)-amide]"
